{"source": "patent US9937235B2", "about": "“Lipidated peptides as anti-obesity agents” (USTAV ORGANICKE CHEMIE A BIOCHEMIE AKADEMIE VED CR, V.V.I, priority 2012, dated 2018)", "tested_on": "fasted C57BL/6 mice", "assay": "Food intake in fasted mice after SC administration", "type": "in vivo, mouse", "conditions": "fasted C57BL/6 mice, 5 mg/kg SC, 45 min", "experimental": "Male C57BL/6 mice (An Lab, Prague 4) were bred in the accredited animal facility in the Institute of Organic Chemistry and Biochemistry, Czech Academy of Sciences, Prague, at the Institute of Molecular Genetics, Prague 4, at the temperature of 22±2° C. with access to food and water ad libitum. The day/night cycle was 12/12 hours (light turned on at 6:00 am). Animals were treated according to the Animal Protection Act (Act No. 246/1992). The males were fed standard chow diet St-1 (Mlýn Kocanda, Praha, Czech Republic) which contained 66% saccharides, 25% proteins and 9% lipids with a caloric value of 3.4 kcal/g.\nThe food was withdrawn 17 hours prior to injection of lipidated peptide and free access to water was maintained. The administration of saline, PrRP or lipidated analogs was performed either by SC injection at doses of 1-10 mg/kg (volume 0.2 ml/mouse), or by ICV using infusion pump (cannulae were inserted into the third brain ventricle 4 days before the experiment following the procedure of Maixnerová et al. (Maixnerová et al., 2011)). The single dose of peptide was 4 nmol/mouse (5 μl/mouse).\nFifteen minutes after the lipidated peptide administration, the mice were given pre-weighed food. The food was then weighed every 30 minutes for 5-10 hours. The administration of every dose was performed at least twice and one group of mice consisted of at least 6 mice. The results were presented as % of food intake as compared with the control group injected with saline.\nStatistical evaluation was performed using program Graph-Pad Prism Software (San Diego, Calif., USA), and the one-way ANOVA with a subsequent Dunnettovým post-hoc test. The difference in food intake between mice injected with saline and mice injected with the examined peptide were considered statistically significant at P<0.05.", "note": "Where a SMILES comes first, the peptide text is derived from it. [ ]: non-standard residue; d: D form. The star is where a group is joined. Phe(4-NO2) = N[C@@H](Cc1ccc([N+](=O)[O-])cc1)C(=O)O; Palmitoyl = CCCCCCCCCCCCCCCC(=O)*; Myristoyl = CCCCCCCCCCCCCC(=O)*; Nle = CCCC[C@H](N)C(=O)O; Octanoyl = CCCCCCCC(=O)*", "data": [{"smiles": "CCCCCCCCCCCCCCCC(=O)N[C@@H](CO)C(=O)N[C@@H](CCCNC(=N)N)C(=O)N[C@@H](C)C(=O)N[C@@H](Cc1c[nH]cn1)C(=O)N[C@@H](CCC(N)=O)C(=O)N[C@@H](Cc1c[nH]cn1)C(=O)N[C@@H](CO)C(=O)N[C@@H](CCCC)C(=O)N[C@@H](CCC(=O)O)C(=O)N[C@H](C(=O)N[C@@H](CCCNC(=N)N)C(=O)N[C@H](C(=O)N1CCC[C@H]1C(=O)N[C@@H](CC(=O)O)C(=O)N[C@H](C(=O)N[C@@H](CC(N)=O)C(=O)N1CCC[C@H]1C(=O)N[C@@H](C)C(=O)N[C@@H](Cc1c[nH]c2ccccc12)C(=O)N[C@@H](Cc1ccc(O)cc1)C(=O)N[C@H](C(=O)NCC(=O)N[C@@H](CCCNC(=N)N)C(=O)NCC(=O)N[C@H](C(=O)N[C@@H](CCCNC(=N)N)C(=O)N1CCC[C@H]1C(=O)N[C@H](C(=O)NCC(=O)N[C@@H](CCCNC(=N)N)C(=O)N[C@@H](Cc1ccc([N+](=O)[O-])cc1)C(N)=O)C(C)C)[C@@H](C)CC)[C@@H](C)O)[C@@H](C)CC)[C@@H](C)O)[C@@H](C)O", "note": "[Analog 29] (Palmitoyl-SRAHQHS[Nle]ETRTPDINPAWYTGRGIRPVGR[Phe(4-NO2)]-NH2)", "values": [{"measurement": "Food intake in mice (5 mg/kg SC) % saline-treated group (45 min)", "result": 0.7, "unit": "%"}]}, {"smiles": "CCCCCCCCCCCCCC(=O)N[C@@H](CO)C(=O)N[C@@H](Cc1c[nH]cn1)C(=O)N[C@@H](CCC(N)=O)C(=O)N[C@@H](CCCNC(=N)N)C(=O)N1CCC[C@H]1C(=O)N[C@@H](C)C(=O)N[C@@H](CC(=O)O)C(=O)N[C@H](C(=O)N[C@@H](Cc1c[nH]cn1)C(=O)N[C@@H](Cc1c[nH]c2ccccc12)C(=O)N[C@@H](Cc1ccc(O)cc1)C(=O)N1CCC[C@H]1C(=O)N[C@@H](CCCNC(=N)N)C(=O)NCC(=O)N[C@@H](CCCC)C(=O)N[C@@H](Cc1ccccc1)C(=O)N1CCC[C@H]1C(=O)N[C@H](C(=O)N[C@H](C(=O)NCC(=O)N[C@@H](CCCNC(=N)N)C(=O)N[C@H](C(=O)N[C@H](C(=O)N[C@@H](C)C(=O)N[C@@H](CCCNC(=N)N)C(=O)N[C@@H](CC(N)=O)C(=O)NCC(=O)N[C@@H](CCC(=O)O)C(=O)N[C@H](C(=O)N[C@@H](CO)C(=O)N[C@@H](CCCNC(=N)N)C(=O)O)C(C)C)[C@@H](C)O)[C@@H](C)CC)[C@@H](C)CC)[C@@H](C)O)[C@@H](C)O", "note": "[Analog 31] (Myristoyl-SHQRPADTHWYPRG[Nle]FPTIGRITARNGEVSR-OH; C-terminus assumed)", "values": [{"measurement": "Food intake in mice (5 mg/kg SC) % saline-treated group (45 min)", "result": 100, "unit": "%"}]}, {"smiles": "CCCCCCCCCCCCCCCC(=O)N[C@@H](CO)C(=O)N[C@@H](CCCNC(=N)N)C(=O)N[C@@H](C)C(=O)N[C@@H](Cc1c[nH]cn1)C(=O)N[C@@H](CCC(N)=O)C(=O)N[C@@H](Cc1c[nH]cn1)C(=O)N[C@@H](CO)C(=O)N[C@@H](CCCC)C(=O)N[C@@H](CCC(=O)O)C(=O)N[C@H](C(=O)N[C@@H](CCCNC(=N)N)C(=O)N[C@H](C(=O)N1CCC[C@H]1C(=O)N[C@@H](CC(=O)O)C(=O)N[C@H](C(=O)N[C@@H](CC(N)=O)C(=O)N1CCC[C@H]1C(=O)N[C@@H](C)C(=O)N[C@@H](Cc1c[nH]c2ccccc12)C(=O)N[C@@H](Cc1ccc(O)cc1)C(=O)N[C@H](C(=O)NCC(=O)N[C@@H](CCCNC(=N)N)C(=O)NCC(=O)N[C@H](C(=O)N[C@@H](CCCNC(=N)N)C(=O)N1CCC[C@H]1C(=O)N[C@H](C(=O)NCC(=O)N[C@@H](CCCNC(=N)N)C(=O)N[C@@H](Cc1ccc(O)cc1)C(N)=O)C(C)C)[C@@H](C)CC)[C@@H](C)O)[C@@H](C)CC)[C@@H](C)O)[C@@H](C)O", "note": "[Analog 35] (Palmitoyl-SRAHQHS[Nle]ETRTPDINPAWYTGRGIRPVGRY-NH2)", "values": [{"measurement": "Food intake in mice (5 mg/kg SC) % saline-treated group (45 min)", "result": 22, "unit": "%"}]}, {"smiles": "CCCCCCCCCCCCCC(=O)N[C@H](Cc1ccccc1)C(=O)N[C@H](CCCNC(=N)N)C(=O)NCC(=O)N[C@H](C(=O)N1CCC[C@H]1C(=O)N[C@@H](CCCNC(=N)N)C(=O)N[C@H](C(=O)NCC(=O)N[C@@H](CCCNC(=N)N)C(=O)NCC(=O)N[C@H](C(=O)N[C@@H](Cc1ccc(O)cc1)C(=O)N[C@@H](Cc1c[nH]c2ccccc12)C(=O)N[C@@H](C)C(=O)N1CCC[C@H]1C(=O)N[C@@H](CC(N)=O)C(=O)N[C@H](C(=O)N[C@@H](CC(=O)O)C(=O)N1CCC[C@H]1C(=O)N[C@H](C(N)=O)[C@@H](C)O)[C@@H](C)CC)[C@@H](C)O)[C@@H](C)CC)C(C)C", "note": "[Analog 37] (Myristoyl-[dF][dR]GVPRIGRGTYWAPNIDPT-NH2)", "values": [{"measurement": "Food intake in mice (5 mg/kg SC) % saline-treated group (45 min)", "result": 100, "unit": "%"}]}, {"smiles": "CC[C@H](C)[C@H](NC(=O)CNC(=O)[C@H](CCCNC(=N)N)NC(=O)[C@H](CO)NC(=O)[C@H](C)NC(=O)[C@H](Cc1ccc(O)cc1)NC(=O)[C@H](Cc1c[nH]c2ccccc12)NC(=O)[C@H](C)NC(=O)[C@@H]1CCCN1C(=O)[C@H](CC(N)=O)NC(=O)[C@@H](NC(=O)[C@H](CC(=O)O)NC(=O)[C@@H]1CCCN1C(=O)[C@@H](NC(=O)[C@H](CCCNC(=N)N)NC(=O)[C@@H](NC(=O)[C@H](CCC(=O)O)NC(=O)[C@H](CCSC)NC(=O)[C@H](CO)NC(=O)[C@H](Cc1c[nH]cn1)NC(=O)[C@H](CCCNC(=N)N)NC(=O)[C@H](Cc1c[nH]cn1)NC(=O)[C@@H](NC(=O)[C@H](CCCNC(=N)N)NC(=O)[C@@H](N)CO)[C@@H](C)O)[C@@H](C)CC)[C@@H](C)O)[C@@H](C)CC)C(=O)N[C@@H](CCCNC(=N)N)C(=O)N1CCC[C@H]1C(=O)N[C@H](C(=O)NCC(=O)N[C@@H](CCCNC(=N)N)C(=O)N[C@@H](Cc1ccccc1)C(N)=O)C(C)C", "note": "[Analog 50]", "values": [{"measurement": "Food intake in mice (5 mg/kg SC) % saline-treated group (45 min)", "result": 100, "unit": "%"}]}, {"smiles": "CCCCCCCC(=O)N[C@H](C(=O)N1CCC[C@H]1C(=O)N[C@@H](CC(=O)O)C(=O)N[C@H](C(=O)N[C@@H](CC(N)=O)C(=O)N1CCC[C@H]1C(=O)N[C@@H](C)C(=O)N[C@@H](Cc1c[nH]c2ccccc12)C(=O)N[C@@H](Cc1ccc(O)cc1)C(=O)N[C@@H](C)C(=O)N[C@@H](CO)C(=O)N[C@@H](CCCNC(=N)N)C(=O)NCC(=O)N[C@H](C(=O)N[C@@H](CCCNC(=N)N)C(=O)N1CCC[C@H]1C(=O)N[C@H](C(=O)NCC(=O)N[C@@H](CCCNC(=N)N)C(=O)N[C@@H](Cc1ccccc1)C(N)=O)C(C)C)[C@@H](C)CC)[C@@H](C)CC)[C@@H](C)O", "note": "[Analog 52] (Octanoyl-TPDINPAWYASRGIRPVGRF-NH2)", "values": [{"measurement": "Food intake in mice (5 mg/kg SC) % saline-treated group (45 min)", "result": 100, "unit": "%"}]}, {"smiles": "CCCCCCCCCCCCCC(=O)N[C@@H](CO)C(=O)N[C@@H](CCCNC(=N)N)C(=O)N[C@H](C(=O)N[C@@H](Cc1c[nH]cn1)C(=O)N[C@@H](CCCNC(=N)N)C(=O)N[C@@H](Cc1c[nH]cn1)C(=O)N[C@@H](CO)C(=O)N[C@@H](CCSC)C(=O)N[C@@H](CCC(=O)O)C(=O)N[C@H](C(=O)N[C@@H](CCCNC(=N)N)C(=O)N[C@H](C(=O)N1CCC[C@H]1C(=O)N[C@@H](CC(=O)O)C(=O)N[C@H](C(=O)N[C@@H](CC(N)=O)C(=O)N1CCC[C@H]1C(=O)N[C@@H](C)C(=O)N[C@@H](Cc1c[nH]c2ccccc12)C(=O)N[C@@H](Cc1ccc(O)cc1)C(=O)N[C@@H](C)C(=O)N[C@@H](CO)C(=O)N[C@@H](CCCNC(=N)N)C(=O)NCC(=O)N[C@H](C(=O)N[C@@H](CCCNC(=N)N)C(=O)N1CCC[C@H]1C(=O)N[C@H](C(=O)NCC(=O)N[C@@H](CCCNC(=N)N)C(=O)N[C@@H](Cc1ccccc1)C(N)=O)C(C)C)[C@@H](C)CC)[C@@H](C)CC)[C@@H](C)O)[C@@H](C)CC)[C@@H](C)O", "note": "[Analog 56]", "values": [{"measurement": "Food intake in mice (5 mg/kg SC) % saline-treated group (45 min)", "result": 35, "unit": "%"}]}]}
